Converted amounts (≈) assume the structure as drawn.
Legend:
[1] = system: Methicillin resistant S. aureus IBRS MRSA 011; assay: Antimicrobial microdilution assay (MIC/MBC); assay type: cell-based, Staphylococcus aureus; settings: Staphylococcus aureus, MRSA
Procedure, shortened: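 Polyphenols 0.0039–1 mg/mL, stocks in 30% ethanol; inoculum 0.5 McFarland diluted twenty-fold, mixed 1:10; 24 h, 37 °C. MIC = no visible growth (binocular microscope). Streptomycin positive control, ethanol negative control; triplicate.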

HaCaT cells = assay: Cytotoxicity in HaCaT cell line (crystal violet assay); assay type: cell-based, human; settings: Homo sapiens, HaCaT, 24 h, read-out: IC50 (compound concentration that inhibited 50% of the cell growth)
Procedure, shortened: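 HaCaT keratinocytes seeded 1 × 10^4 cells/well 24 h before treatment, then exposed to polyphenols for 24 h. Viable cells stained with crystal violet, absorbance at 590 nm. IC50 in μg/mL, triplicate with three readings each, mean ± SD.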

P. aeruginosa IBRS P001 [2] = assay: Catheter biofilm eradication model (24 h old biofilm); assay type: cell-based, Pseudomonas aeruginosa
Method: For the catheter biofilm eradication assay, P. aeruginosa and MRSA were incubated in TSB with 2% glucose with 1 cm long catheters in 24-well plates at 37 °C for 24 h. […] Subsequently, the catheters were washed and treated, as described above.

[3] = system: P. aeruginosa IBRS P001 biofilm; assay: Quantification of eDNA (biofilm formation); assay type: cell-based; settings: Pseudomonas aeruginosa, IBRSP001BIOFILM; 0.25 MIC, 0.125 mg/mL; read-out: inhibition of eDNA levels
Method: The quantity of eDNA was determined as previously described, with some modifications. […] Subsequently, the planktonic cells were removed, and the wells were washed with PBS. TE buffer (Tris-EDTA buffer solution) was added to the wells and content was mixed vigorously by pipetting. The samples were transferred to 1.5 mL tubes and centrifuged at 10,000× g for 10 min. After removal of the supernatant, the pellet was suspended in a TE buffer by vortexing. Absorbance of the supernatant (260 nm) was measured after centrifugation at 10,000× g for 15 min. We calculated the inhibition percentage of eDNA relative to an untreated control. The solvent treated sample was used as the control.

[4] = system: 24 h old P. aeruginosa IBRS P001 biofilms; assay: Biofilm eradication, crystal violet assay (biofilm mass); assay type: cell-based, Pseudomonas aeruginosa; settings: 4 MBC—4 mg/mL, 24 h treatment
Method: After incubation, each well was washed twice with sterile PBS (phosphate-buffered saline, pH 7.4) and fixed with methanol for 10 min. After removal of methanol the plate was air-dried. The biofilm was stained with 0.1% crystal violet (Bio-Merieux, Marcy l’Etoile, France) for 30 min. The plate was washed with water, air dried, and the stain was dissolved with 200 μL of 96% ethanol (Zorka, Sabac, Serbia). The absorbance was read at 620 nm on a Multiskan™ FC microplate photometer (Thermo Scientific™, Waltham, MA, USA). The results are presented as biofilm forming capacity (%) compared to control.
The bacterial cells were incubated in TSB enriched with 2% glucose in 96-well plates (Sarstedt, Germany) with adhesive bottom at 37 °C for 24 h. After incubation, wells were washed with PBS, and rutin (MBC–4 MBC) in TSB with 2% glucose was added. Incubation continued at 37 °C for another 24 h. The planktonic cells were removed.
The assays continued as described above for the crystal violet antibiofilm assay for the measurement of biofilm mass, biofilm MTT assay for the interference with cell viability, Congo red binding assay for estimation of exopolysaccharide production, and eDNA assay.

[5] = system: P. aeruginosa IBRS P001 pyocyanin production; assay: Pyocyanin assay; assay type: cell-based, Pseudomonas aeruginosa; settings: 0.25 mg/mL (0.5 MIC), compared to the control
Method: Pyocyanin extraction from the culture supernatant was performed using chloroform in a 1:2 ratio [71]. The second extraction of the chloroform phase was done by 0.2 N HCl (3:1 ratio). The pyocyanin concentration was evaluated by recording the absorbance at 520 nm using a Plate Reader Infinite 200 pro (MTX Lab Systems, Vienna, VA, USA). The pyocyanin concentration was calculated by multiplication of the absorbance (A520) by 17.072. A solvent-treated culture supernatant was used as a positive control.

P. aeruginosa IBRS P001 [6] = assay: Membrane permeability assay (nucleotide and protein leakage); assay type: cell-based, Pseudomonas aeruginosa; settings: rutin MIC; absorbance of released nucleic acids (260 nm) and proteins (280 nm) increased after 60 min
Method: (§1) The effect of rutin on membrane permeability (nucleotide and protein leakage) was evaluated as described earlier with some modifications. The culture of P. aeruginosa IBRS P001 and MRSA IBRS MRSA 011 was incubated overnight at 37 °C, washed, and suspended in 10 mM PBS in order to achieve the final density of 10^8 CFU/mL. Bacteria were incubated with rutin at a concentration equal to MIC for time intervals 0, 30, 60, and 90 min. Bacteria incubated with PBS were used as control. After incubation the mixture was filtered through a 0.22 μm pore size filter to remove […]. The optical density of the filtrate was measured at 260 and 280 nm with an Agilent/HP 8453 UV-Visible Spectrophotometer (Agilent Technologies, Santa Clara, CA, USA) at room temperature (25 °C).

MRSA IBRS MRSA 011 = assay: as above; assay type: cell-based, Staphylococcus aureus; settings: rutin MIC; more significant increase in absorbance at 260 and 280 nm after 90 min
Method: as §1

EPS production = system: EPS production; set-up: method as in doi:10.1016/j.foodcont.2018.02.044; settings: 200 µg/mL of rutin; cited from earlier work

SMILES: C[C@@H]1O[C@@H](OC[C@H]2O[C@@H](Oc3c(-c4ccc(O)c(O)c4)oc4cc(O)cc(O)c4c3=O)[C@H](O)[C@@H](O)[C@@H]2O)[C@H](O)[C@H](O)[C@H]1O [Rutin, rutin]
- MIC ([1]; 37 °C, 24 h, read-out: MIC): 500 µg/mL (≈ 819 µM)
- MBC ([1]; subcultivation, 24 h at 37 °C, read-out: MBC): 1000 µg/mL (≈ 1640 µM)
- IC50 (HaCaT cells): > 1000 µg/mL
- catheter biofilm eradicated (P. aeruginosa IBRS P001 [2]; 2 MBC, 24 h old biofilm): 73.7%
- biofilm cells remained viable after the treatment (P. aeruginosa IBRS P001 [2]; 24 h old catheter biofilm, concentration not printed (MBC-4MBC tested, probably 4 MBC)): 10.9%
- inhibition at 125 µg/mL [3]: > 50%
- inhibition of pre-formed biofilm biomass [4]: 35%
- decrease of pyocyanin production [5]: 82.1%
- cell membrane integrity, in words (P. aeruginosa IBRS P001 [6]): obstructed P. aeruginosa IBRS P001 cell membrane integrity
- cell membrane integrity, in words (MRSA IBRS MRSA 011): disrupted
- inhibition of EPS production (EPS production): more than 40%

Reference: PMC8952364, “Polyphenols as Inhibitors of Antibiotic Resistant Bacteria—Mechanisms Underlying Rutin Interference with Bacterial Virulence” (Pharmaceuticals, 2022)
